Results: ChEMBL document CHEMBL1150550, “A novel condensed tropone-isoquinoline alkaloid, pareitropone, from Cissampelos pareira” (Bioorg Med Chem Lett, 1995)
Converted amounts (≈) assume the structure as drawn.

Tested on: P388
Test: Cytotoxicity against cultured p-388 cells
Assay type: functional, cell-based
Settings: Mus musculus

Row | SMILES | IC50
1 | COc1c(OC)c2c3c(nccc3c1OC)-c1cc(OC)c(=O)ccc1-2 | 1.2 mg/L (≈ 3.42 µM)
2 | COc1c(OC)c2c3c(nccc3c1OC)-c1cc(O)c(=O)ccc1-2 [GRANDIRUBRINE] | 0.18 mg/L (≈ 0.534 µM)
3 | COc1cc2ccnc3c2c(c1OC)-c1ccc(=O)ccc1-3 [PAREITROPONE] | 0.0008 mg/L (≈ 0.00275 µM)
